Patent publication US20200308165A1, “Compounds as Ras Inhibitors and Use Thereof” (D.E. Shaw Research, LLC, priority 2017, published 2020)

Legend:
[1] = target: T1, KRAS4B (wild type) (Homo sapiens, UniProt P01116); experiment: K-Ras Nucleotide Exchange Assay-384 (SOS Exchange Assay by Cytoskeleton, GTPx_Cyt_IC50); assay type: biochemical; settings: 1 μM KRAS4B, 0.05 μM SOS1, 1.5 μM mant-GDP
T1 construct: purchased Cytoskeleton CS-RS03 (K-Ras4B); CS-SOS1-A (SOS1)
Procedure: Example 16. Evaluation of Biological Activities: K-Ras Nucleotide Exchange Assay-384 (SOS Exchange Assay by Cytoskeleton (GTPx_Cyt_IC50))
This assay is used to evaluate inhibitors of K-ras, by monitoring the inhibition of nucleotide exchange over time, in the presence of the protein SOS.
384-well black, untreated plates (Corning 3820 with NBS or 3821 untreated) were used. K-Ras4B Protein was used, which is wild-type (Cytoskeleton #CS-RS03) with a concnetration of 5 mg/ml, or 200 μM. Human SOS1 Protein, Exchange Domain 564-1049 (Cytoskeleton # CS-SOS1-A) was used in a concentration of 3.03 mg/ml or 50 μM. Mant-GDP triethylammonium salt solution was purchased from Sigma (catalog No. 69244). 1M stock solution of Hepes was purchased from Sigma (catalog No. H9897). 1M stock solution of MgCl2 was purchased from Sigma (catalog No. M4880). CHAPS, 3% was purchased from Sigma (catalog No. C5070). Nonidet P40 was purchased from Sigma. KOH pellets were purchased from Sigma.
K-ras buffer containing 40 mM Hepes, 10 mM MgCl2, 0.05% CHAPS, 0.01% NP40 with a pH 7.5 was prepared as follows: to a Buffer base containing 4 ml 1M Hepes, 1 ml MgCl2,
93.3 ml d-H2O, pH 7.5 (with KOH pellets), 1.7 ml 3% CHAPS was added, followed by the addition of 1 ml 1% NP40.
Final Conditions of the method included 1 μM KRAS4B (wild type), 0.05 μM SOS1, 1.5 μM mant-GDP. Reagent Preparation included: thawing aliquots of KRAS, SOS, and mant-GDP; preparing 3x KRAS (3 uM) in assay buffer; preparing 3x SOS/mant-GDP (150 nM/4.5 uM) in assay buffer; and preparing 3x compounds in assay buffer.
Assay Procedure (1536) used 3.3 μl, 3x Kras, 3.3 μl 3x compound with preincubate 0 hour, and […] 3x SOS/mant-GDP. A kinetic read measuring fluorescence at 360_450 was performed for 30 min at 30 second intervals.
Reference compound SCH 54292 (reversible inhibitor) at about 100 μM was used with no preincubation. Reagents were only stable for 45 min on ice, and therefore were prepared fresh before each assay. Partial plates (up to 9 columns) were run at a time to minimize effects due to the amount of time it takes to read a whole plate. SOS/mant-GDP were added with an automated pipettor to initiate all reactions at the same time. Assay was typically performed at 0.5% solution in DMSO (compounds prepared in 1.5% DMSO initially).
Clariostar Settings were as follows. Test Name was Kras Kinetic 360-450. Basic settings of the test included Measurement type as Fluorescence (FI), and Microplate name as Corning 3820. Plate mode settings included 61 cycles, 30 second cycle time, and 10 flashes per well. Optic settings were as follows. Excitation wavelength was 360 nm. Emission wavelength was 450 nM. Excitation bandwidth was 12 nm. Emission bandwidth was 12 nm. Dichroic filter 405 was used. D6 Well(s) was used for gain adjustment. No shaking was used. General settings were as follows. Top optic was used. Settling time was 0.1 second. Reading direction was bidirectional, horizontal left to right, and bottom to top. The target temperature was 25° C.

[2] = target: Ras protein (Homo sapiens, UniProt P01116); experiment: GDPx_Icagen_IC50: SOS1-mediated guanine nucleotide exchange rate of Ras (mant-GDP); assay type: biochemical; settings: SOS1-initiated exchange
From the text: (§1) In some embodiments, the IC50 assay measures the reduction effect of a given compound on the guanine nucleotide-echange rate of Ras protein in the presence of guanine nucleotide exchange protein SOS1, which is a Ras activator. In the assay GDP-loaded Ras was first prepared in a buffer containing the compound at certain concentration and fluorescent guanine nucleotide (mant-GDP (used in Icagene assay) or mant-GTP (used in other IC50 assays). The guanine nucleotide exchange was initiated by the addition of the SOS1 and its rate was reflected in the rate of fluorescence change as a function of time, which was monitored by a reader. The experiment was repeated at different compound concentrations and the IC50 of the compound was defined as the compound concentration at which half of its maximal reduction effect on the guanine nucleotide exchange rate is achieved. In other embodiments, other Ras activator proteins may be used. Non-limiting examples of other Ras activator proteins include RasGRP (Ras guanyl-releasing protein).
Example 17. Evaluation of Biological Activities: GDPx_Icagen_ICso
as §1, with “The IC50” for “In some embodiments, the IC50”, “guanine nucleotide-exchange” for “guanine nucleotide-echange”, “Ras is” for “Ras was”, “nucleotide (mant-GDP).” for “nucleotide (mant-GDP (used in Icagene assay) or mant-GTP (used in other IC50 assays).”, “achieved.” for “achieved. In other embodiments, other Ras activator proteins may be used. Non-limiting examples of other Ras activator proteins include RasGRP (Ras guanyl-releasing protein).”

Sequence of Ras protein (P01116 1-188 isoform P01116-2): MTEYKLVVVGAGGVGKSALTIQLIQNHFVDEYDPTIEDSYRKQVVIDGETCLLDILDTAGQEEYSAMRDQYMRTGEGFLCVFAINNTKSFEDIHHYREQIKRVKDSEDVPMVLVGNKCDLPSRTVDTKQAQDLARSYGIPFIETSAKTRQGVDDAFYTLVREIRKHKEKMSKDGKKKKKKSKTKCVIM
T1 sequence (P01116 1-188 isoform P01116-2): as above

Row | IC50 [1] [nM] | IC50 [2] [nM] | SMILES
1 | 3900 | 800 | O=c1cc(COc2ccccc2)[nH]n1-c1nc2ccccc2[nH]1 [Compound145, 2-(1H-benzo[d]imidazol-2-yl)-5-(phenoxymethyl)-1,2-dihydro-3H-pyrazol-3-one]
2 | 1200 | 170 | O=c1cc(CSc2ccccn2)[nH]n1-c1nc2ccccc2[nH]1 [Compound 142, 2-(1H-benzo[d]imidazol-2-yl)-5-((pyridin-2-ylthio)methyl)-1H-pyrazol-3(2H)-one]
3 | 420 | 300 | O=c1cc(CSc2ccccc2)[nH]n1-c1nc2ccccc2[nH]1 [Compound 144, 2-(1H-benzo[d]imidazol-2-yl)-5-((phenylthio)methyl)-1,2-dihydro-3H-pyrazol-3-one]
4 | 2600 | 1800 | Cc1cc(C)nc(SCc2cc(=O)n(-c3nc4ccccc4[nH]3)[nH]2)n1 [Compound 146, 2-(1H-benzo[d]imidazol-2-yl)-5-(((4,6-dimethylpyrimidin-2-yl)thio)methyl)-1,2-dihydro-3H-pyrazol-3-one]
5 | 850 | 3300 | Cc1nnc(SCc2cc(=O)n(-c3nc4ccccc4[nH]3)[nH]2)s1 [Compound 147, 2-(1H-benzo[d]imidazol-2-yl)-5-(((5-methyl-1,3,4-thiadiazol-2-yl)thio)methyl)-1,2-dihydro-3H-pyrazol-3-one]
6 | 410 | 300 | O=c1cc(CSc2nccc(C(F)(F)F)n2)[nH]n1-c1nc2ccccc2[nH]1 [Compound 149, 2-(1H-benzo[d]imidazol-2-yl)-5-(((4-(trifluoromethyl)pyrimidin-2-yl)thio)methyl)-1,2-dihydro-3H-pyrazol-3-one]
7 | 980 | 200 | COc1cccc(SCc2cc(=O)n(-c3nc4ccccc4[nH]3)[nH]2)c1 [Compound 150, 2-(1H-benzo[d]imidazol-2-yl)-5-(((3-methoxyphenyl)thio)methyl)-1,2-dihydro-3H-pyrazol-3-one]
8 | 400 | 400 | O=c1cc(CSc2nc(-c3ccccc3)cs2)[nH]n1-c1nc2ccccc2[nH]1 [Compound 151, 2-(1H-benzo[d]imidazol-2-yl)-5-(((4-phenylthiazol-2-yl)thio)methyl)-1,2-dihydro-3H-pyrazol-3-one]
9 | 12800 |  | Cc1cc(C)nc(SCc2cc(=O)n(-c3nc4ccc(Br)cc4s3)[nH]2)n1 [Compound 155, 2-(6-bromobenzo[d]thiazol-2-yl)-5-(((4,6-dimethylpyrimidin-2-yl)thio)methyl)-1,2-dihydro-3H-pyrazol-3-one]
10 | 17600 |  | Cc1cc(C)nc(SCc2cc(=O)n(-c3ccc(C(F)(F)F)cn3)[nH]2)n1 [Compound 157, 5-(((4,6-dimethylpyrimidin-2-yl)thio)methyl)-2-(5-(trifluoromethyl)pyridin-2-yl)-1,2-dihydro-3H-pyrazol-3-one]
11 |  | 400 | O=c1cc(CSc2nc3cccnc3s2)[nH]n1-c1nc2ccccc2[nH]1 [Compound 177, 2-(1H-benzo[d]imidazol-2-yl)-5-((thiazolo[5,4-b]pyridin-2-ylthio)methyl)-1,2-dihydro-3H-pyrazol-3-one]
12 |  | 320 | NC(=O)c1ccc(SCc2cc(=O)n(-c3nc4ccccc4[nH]3)[nH]2)cc1 [Compound 178, 4-(((1-(1H-benzo[d]imidazol-2-yl)-5-oxo-2,5-dihydro-1H-pyrazol-3-yl)methyl)thio)benzamide]
13 |  | 4500 | O=c1cc(CSc2ccccc2)[nH]n1-c1ncc[nH]1 [Compound 179, 2-(1H-imidazol-2-yl)-5-((phenylthio)methyl)-1,2-dihydro-3H-pyrazol-3-one]
14 |  | 2500 | O=c1cc(CSc2cccnc2)[nH]n1-c1nc2ccccc2[nH]1 [Compound 181, 2-(1H-benzo[d]imidazol-2-yl)-5-((pyridin-3-ylthio)methyl)-1,2-dihydro-3H-pyrazol-3-one]

The remaining lines, values behind:

Row | SMILES | IC50 [1] [nM] | IC50 [2] [nM]
15 | CCc1csc(SCc2cc(=O)n(-c3nc4ccccc4[nH]3)[nH]2)n1 [Compound 139, 2-(1H-benzo[d]imidazol-2-yl)-5-(((4-ethylthiazol-2-yl)thio)methyl)-1H-pyrazol-3(2H)-one] |  | 50
16 | Cc1ccc(-n2[nH]c(CSc3ccccc3)cc2=O)nc1 [Compound 140, 2-(5-methylpyridin-2-yl)-5-((phenylthio)methyl)-1H-pyrazol-3(2H)-one] | 30800 | 1600
17 | Cc1c(CSc2ccccc2)[nH]n(-c2nc3ccccc3[nH]2)c1=O [Compound 141, 2-(1H-benzo[d]imidazol-2-yl)-4-methyl-5-((phenylthio)methyl)-1H-pyrazol-3(2H)-one] | 100000 | 770
18 | Cc1cc(C)nc(SCc2cc(=O)n(-c3ccccn3)[nH]2)n1 [Compound 143, 5-(((4,6-dimethylpyrimidin-2-yl)thio)methyl)-2-(pyridin-2-yl)-1,2-dihydro-3H-pyrazol-3-one] | 5400 | 2100
19 | O=c1cc(CSCc2ccc(F)cc2)[nH]n1-c1nc2ccccc2[nH]1 [Compound 148, 2-(1H-benzo[d]imidazol-2-yl)-5-(((4-fluorobenzyl)thio)methyl)-1,2-dihydro-3H-pyrazol-3-one] | 550 | 300
20 | O=c1cc(CSc2ccc(Br)cn2)[nH]n1-c1ccccn1 [Compound 160, 5-(((5-bromopyridin-2-yl)thio)methyl)-2-(pyridin-2-yl)-1,2-dihydro-3H-pyrazol-3-one] | 7400 | 
21 | O=c1cc(CSCc2ccc(F)cc2)[nH]n1-c1ccccn1 [Compound 161, 5-(((4-fluorobenzyl)thio)methyl)-2-(pyridin-2-yl)-1,2-dihydro-3H-pyrazol-3-one] | 2700 | 
22 | O=c1cc(CSc2cc(Cl)cc(Cl)c2)[nH]n1-c1nc2ccccc2[nH]1 [Compound 175, 2-(1H-benzo[d]imidazol-2-yl)-5-(((3,5-dichlorophenyl)thio)methyl)-1,2-dihydro-3H-pyrazol-3-one] |  | 63
23 | O=c1cc(CSc2ccccc2)[nH]n1-c1cc(Br)ccn1 [Compound 176, 2-(4-bromopyridin-2-yl)-5-((phenylthio)methyl)-1,2-dihydro-3H-pyrazol-3-one] |  | 6000
24 | O=c1cc(CSc2nc(Cc3ccccc3)cs2)[nH]n1-c1nc2ccccc2[nH]1 [Compound 180, 2-(1H-benzo[d]imidazol-2-yl)-5-(((4-benzylthiazol-2-yl)thio)methyl)-1,2-dihydro-3H-pyrazol-3-one] |  | 200
25 | Cc1csc(SCc2cc(=O)n(-c3ccccn3)[nH]2)n1 [Compound 182, 5-(((4-methylthiazol-2-yl)thio)methyl)-2-(pyridin-2-yl)-1,2-dihydro-3H-pyrazol-3-one] |  | 3200
